Consider 15 molecules from patent US9150574B2, “Enzyme inhibitor compounds” (Proximagen Limited, priority 2011, dated 2015).

Where a name gives a salt, the structure may show the parent alone.

By IC50 is commonly meant the concentration at which inhibition is half-maximal.

This experiment has as its target T1, purified recombinantly expressed human SSAO (Homo sapiens, UniProt Q16853).
T1 construct: made in house
T1 sequence (Q16853 29-763 limits assumed): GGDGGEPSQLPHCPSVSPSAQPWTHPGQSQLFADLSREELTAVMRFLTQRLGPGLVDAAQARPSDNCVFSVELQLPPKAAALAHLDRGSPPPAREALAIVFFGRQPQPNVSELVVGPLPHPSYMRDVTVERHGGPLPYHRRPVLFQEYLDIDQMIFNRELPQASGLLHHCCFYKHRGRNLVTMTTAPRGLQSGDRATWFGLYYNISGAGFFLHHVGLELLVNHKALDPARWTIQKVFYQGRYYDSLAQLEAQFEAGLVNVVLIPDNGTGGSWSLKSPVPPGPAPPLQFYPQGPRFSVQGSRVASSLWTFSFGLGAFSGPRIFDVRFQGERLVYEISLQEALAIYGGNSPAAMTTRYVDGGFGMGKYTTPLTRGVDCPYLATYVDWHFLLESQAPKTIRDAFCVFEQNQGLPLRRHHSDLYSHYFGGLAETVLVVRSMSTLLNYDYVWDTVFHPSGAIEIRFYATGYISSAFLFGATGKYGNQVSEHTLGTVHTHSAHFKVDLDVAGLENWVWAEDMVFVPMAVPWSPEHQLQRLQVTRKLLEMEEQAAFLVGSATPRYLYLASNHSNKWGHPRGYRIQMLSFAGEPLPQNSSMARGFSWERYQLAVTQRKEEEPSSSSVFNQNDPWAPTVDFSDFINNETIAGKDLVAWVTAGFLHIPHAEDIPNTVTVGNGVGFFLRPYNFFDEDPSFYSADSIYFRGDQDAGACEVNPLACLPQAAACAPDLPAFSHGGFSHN
Nature of the experiment: SSAO enzyme inhibition assay (benzylamine substrate; hydrogen peroxide/HRP-coupled or 14C aldehyde detection). The experiment is classed as biochemical. The settings on record: human recombinant SSAO, RT, benzylamine as substrate; read-out: SSAO inhibitory activity IC50. The method, then: All primary assays were performed at RT. with purified recombinantly expressed human SSAO. Enzyme was prepared essentially as described in Ohman et al. (Protein Expression and Purification 46 (2006) 321 331). In addition, secondary- and selectivity assays were performed using SSAO prepared from various tissues or purified rat recombinant SSAO. The enzyme activity was assayed with benzylamine as substrate by measuring either benzaldehyde production, using ^14C-labeled substrate, or by utilizing the production of hydrogen peroxide in a horseradish peroxidase (HRP) coupled reaction. Briefly, test compounds were dissolved in dimethyl sulfoxide (DMSO) to a concentration of 10 mM. Dose-response measurements were assayed by either creating 1:10 serial dilutions in DMSO to produce a 7 point curve or by making 1:3 serial dilutions in DMSO to produce 11 point curves. The top concentrations were adjusted depending on the potency of the compounds and subsequent dilution in reaction buffer yielded a final DMSO concentration ≦2%.
In a horseradish peroxidase (HRP) coupled reaction, hydrogen peroxide oxidation of 10-acetyl-3,7-dihydroxyphenoxazine produced resorufin, which is a highly fluorescent compound (Zhout and Panchuk-Voloshina. Analytical Biochemistry 253 (1997) 169-174; Amplex® Red Hydrogen Peroxide/peroxidase Assay kit, Invitrogen A22188). Enzyme and compounds in 50 mM sodium phosphate, pH 7.4 were set to pre-incubate in flat-bottomed microtiter plates for approximately 15 minutes before initiating the reaction by addition of a mixture of HRP, benzylamine and Amplex reagent. Benzylamine concentration was fixed at a concentration corresponding to the Michaelis constant, determined using standard procedures. Fluorescence intensity was then measured at several time points during 1-2 hours, exciting at 544 nm and reading the emission at 590 nm. For the human SSAO assay final concentrations of the reagents in the assay wells were: SSAO enzyme 1 μg/ml, benzylamine 100 μM, Amplex reagent 20 μM, HRP 0.1 U/mL and varying concentrations of test compound. The inhibition was measured as % decrease of the signal compared to a control without inhibitor (only diluted DMSO). The background signal from a sample containing no SSAO enzyme was subtracted from all data points. Data was fitted to a four parameter logistic model and IC50 values were calculated using the GraphPad Prism 4 or XLfit 4 programs.
SSAO activity was assayed using 14C-labeled benzylamine and analysed by measuring radioactive benzaldehyde. In a white 96-well optiplate (Packard), 20 μL of diluted test compound was pre-incubated at RT. with 20 μL SSAO enzyme for approximately 15 minutes with continuous agitation. All dilutions were made with PBS. The reaction was initiated by adding 20 μL of the benzylamine substrate solution containing [7-14C] Benzylamine hydrochloride (CFA589, GE Healthcare). The plate was incubated for 1 hour as above after which the reaction was stopped by acidification (10 μL 1 M HCl). Then 90 μL Micro Scint-E solution (Perkin-Elmer) was added to each well and the plate was continuously mixed for 15 minutes. Phase separation occurred instantly and activity was read in a Topcount scintillation counter (Perkin-Elmer). In the final reaction well, the human recombinant SSAO concentration was 10 μg/ml. In order to optimize sensitivity, the substrate concentration was decreased as compared to the HRP coupled assay in order to get a higher fraction of radioactive product. In the human SSAO assay, benzylamine concentration was 40 μM (0.2 μCi/mL). Data was analysed as above.
Regarding `O=C(C1CCCCN1c1nn(-c2ccc(Cl)cc2)c2cnccc12)N1CCNCC1` (stereo not drawn) [Example 25, 1-({1-[1-(4-Chlorophenyl)-1H-pyrazolo[3,4-c]pyridin-3-yl]piperidin-2-yl}carbonyl) piperazine], the IC50 is < 100 nM.

With `NCCN1CCC(c2cn(-c3ccc(Cl)cc3)c3cnccc23)CC1` [Example 1, 2,2,2-Trifluoroacetic acid; 2-{4-[1-(4-chlorophenyl)-1H-pyrrolo[2,3-c]pyridin-3-yl]piperidin-1-yl}ethan-1-amine], the IC50 is < 100 nM.

Turning to `COC(=O)C1CCCCN1c1nn(-c2ccc(Cl)cc2)c2cnccc12` (stereo not drawn) [Example 23, Methyl 1-[1-(4-chlorophenyl)-1H-pyrazolo[3,4-c]pyridin-3-yl]piperidine-2-carboxylate], the IC50 lay in the range of 500 to 2500 nM.

Regarding `O=C(N1CCCNCC1)N1CCC(c2cn(-c3ccc(Cl)cc3)c3cnccc23)CC1` [Example 10, 1-({4-[1-(4-Chlorophenyl)-1H-pyrrolo[2,3-c]pyridin-3-yl]piperidin-1-yl}carbonyl)-1,4-diazepane], the IC50 is < 100 nM.

Regarding `CN(C)CCCC(=O)N1CCC(c2cn(-c3ccc(Cl)cc3)c3cnccc23)CC1` [Example 3, 1-{4-[1-(4-Chlorophenyl)-1H-pyrrolo[2,3-c]pyridin-3-yl]piperidin-1-yl}-4-(dimethylamino)butan-1-one; 2,2,2-trifluoroacetic acid], the half-maximal inhibitory concentration (IC50) is < 100 nM.

With `NCCCNC(=O)N1CCC(c2cn(-c3ccc(Cl)cc3)c3cnccc23)CC1` [Example 6, N-(3-Aminopropyl)-4-[1-(4-chlorophenyl)-1H-pyrrolo[2,3-c]pyridin-3-yl]piperidine-1-carboxamide], the IC50 is < 100 nM.

Take `O=C(N1CCNCC1)N1CCC(c2cn(-c3ccc(Cl)cc3)c3cnccc23)CC1` [Example 8, 1-({4-[1-(4-Chlorophenyl)-1H-pyrrolo[2,3-c]pyridin-3-yl]piperidin-1-yl}carbonyl)piperazine]: the IC50 was < 100 nM.

As for `Clc1ccc(-n2nc(C3CCN(Cc4cccnc4)CC3)c3ccncc32)cc1` [Example 30, 3-({4-[1-(4-Chlorophenyl)-1H-pyrazolo[3,4-c]pyridin-3-yl]piperidin-1-yl}methyl)pyridine], the IC50 was in the range of 100 to 500 nM.

Consider `NCCCCC(=O)N1CCC(c2cn(-c3ccc(Cl)cc3)c3cnccc23)CC1` [Example 4, 5-Amino-1-{4-[1-(4-chlorophenyl)-1H-pyrrolo[2,3-c]pyridin-3-yl]piperidin-1-yl}pentan-1-one], for which the IC50 is < 100 nM.

On to `NCCNC(=O)C1COCCN1c1nn(-c2ccc(Cl)cc2)c2cnccc12` (stereo not drawn) [Example 21, N-(2-Aminoethyl)-4-[1-(4-chlorophenyl)-1H-pyrazolo[3,4-c]pyridin-3-yl]morpholine-3-carboxamide], for which the IC50 was < 100 nM.

On to `Cc1ccc(-n2nc(N3CCOC(CO)C3)c3ccncc32)cc1` (stereo not drawn) [Example 18, {4-[1-(4-Methylphenyl)-1H-pyrazolo[3,4-c]pyridin-3-yl]morpholin-2-yl}methanol], for which the IC50 is < 100 nM.

`OC[C@@H]1COCCN1c1nn(-c2ccc(Cl)cc2)c2cnccc12` [Example 19, [(3R)-4-[1-(4-Chlorophenyl)-1H-pyrazolo[3,4-c]pyridin-3-yl]morpholin-3-yl]methanol]: the IC50 is < 100 nM.

On to `CCOC(=O)C1CCN(c2nn(-c3ccc(Cl)cc3)c3cnccc23)CC1` [Example 11, Ethyl 1-[1-(4-chlorophenyl)-1H-pyrazolo[3,4-c]pyridin-3-yl]piperidine-4-carboxylate], for which the IC50 was in the range of 500 to 2500 nM.

For `O=C(C1CCN(c2nn(-c3ccc(Cl)cc3)c3cnccc23)CC1)N1CCNCC1` [Example 16, 1-({1-[1-(4-Chlorophenyl)-1H-pyrazolo[3,4-c]pyridin-3-yl]piperidin-4-yl}carbonyl)piperazine dihydrochloride], the IC50 was in the range of 100 to 500 nM.

Consider `CCCCN(C)c1nn(-c2ccc(Cl)cc2)c2cnccc12` [Example 28, N-Butyl-1-(4-chlorophenyl)-N-methyl-1H-pyrazolo[3,4-c]pyridin-3-amine], for which the IC50 was in the range of 500 to 2500 nM.
